The text below walks through data of US20120083464A1, “NEUROPROTECTIVE PROPERTIES OF 5'-METHYLTHIOADENOSINE” (priority 2009, published 2012).

Entries after “also recorded” stand apart in the source; their conditions may differ.

For one assay, the system named is isolated optic nerve. Briefly: Simulated ischemia (OGD) in isolated optic nerves, LDH release. Also noted: species or system Sprague Dawley rats. As to conditions: 1 h ischemia with iodoacetate + 2 h reperfusion; MTA 100-300 μM. On the procedure:
Ischemic damage was induced by substituting […] and adding 1 mM of the glyocolytic blocker iodoacetate (1 mM) for 1 h followed by 2 h of reperfusion in […] aCSF. Optic nerves during ischemia and reperfusion were incubated with vehicle, for controls, and with MTA or glutamate receptor antagonists, and subsequently processed for LDH release assay. The results are the mean±SEM of at least three different experiments performed in duplicate.
Cell viability in oligodendrocyte cultures was assayed after 24 h of exposure to MTA (1 μM to 3 mM) calcein-AM assays respectively followed by fluorimetry measurements (Synergy-HT). Oligodendrocyte protection from excitotoxicity and optic nerve damage after ischemia (1 hour+2 hours reperfusion) were examined using lactate dehydrogenase release assays in the presence or absence of MTA (100-300 μM for 3 hours).

The test system of another assay is caspase 3 activity. Briefly: NMDA-mediated increase in caspase 3 activity in mixed neuronal-glial culture. Type of assay: cell-based, Sprague-Dawley rat. The following applies: NMDA 300 μM, MTA 250 μM or MK-801 10 μM. The protocol:
Primary cultures of brain cortical neurons and glia were essentially prepared as described previously (Bruno et al., 2001, Eur. J. Neurosci., 13:1469-1478). The fronto-lateral cortical lobes were dissected out of Sprague-Dawley embryonic day 17 foetuses and were mechanically dissociated in Hanks' balanced solution. The cortical lobes were triturated by aspirating 7-10 times using a Pasteur pipette with a flame-narrowed tip. […]
Cortical neurons or mixed cortical neurons and glia were plated on poly-L-lysine-coated 6-well culture plates and after 7 DIV, cells were treated with vehicle or NMDA (300 μM) for different periods of time. […] Extracts were then centrifuged at 5,000×g for 10 min at 4° C., and protein content was determined by using the BCA protein assay according to the manufacturer instructions. Cell extracts (40 μg of protein) were incubated in reaction buffer (25 mM Hepes, 10% sucrose, 0.1% CHAPS, 10 mM DTT) containing 50 μM fluorescence substrate Z-DEVD-AFC at 37° C. for 1 h. Cleavage of the AFC fluorophore was determined in a spectrofluorometer at excitation wavelength of 400 nm and fluorescence was detected at an emission wavelength of 505 nm. Caspase 3 activity was expressed as units of fluorescence/mg of protein/h (Posadas et al., 2009, Pharm. Res., In press).

For the compound `N[C@H](CCCP(=O)(O)O)C(=O)O` [APV, (2R)-amino-5-phosphonovaleric acid], the “OGD/ischemia-induced damage in isolated optic nerve (LDH release)” value with isolated optic nerve is given as “reduced; also recorded: attenuated”.
Turning to `N#Cc1cc2c(cc1[N+](=O)[O-])=NC(=O)C(=O)N=2` [CNQX, 6-cyano-7-nitro-quinoxaline-2,3-dione], the “OGD/ischemia-induced damage in isolated optic nerve (LDH release)” value in the assay with isolated optic nerve was “reduced; also recorded: attenuated”.
As for `C[C@]12N[C@H](Cc3ccccc31)c1ccccc12` [MK-801, reference compound], in the assay with caspase 3 activity, the “protection against NMDA-induced caspase 3 activity” value is “neuroprotective action”.
